Results on six molecules are retold here after patent US20260263567A1, “TUMOUR SENSITISATION TO CHECKPOINT INHIBITORS WITH REDOX STATUS MODIFIER” (CANCER RESEARCH TECHNOLOGY LIMITED, priority 2022, published 2026).

In one experiment the test system is B78-D14 wild-type cells. Put plainly: Cell sensitivity to inhibitors (IC50 from final confluency, IncuCyte). In kind it is cell-based. Particulars: Mus musculus. The method, then:
(§1) Cells were plated in a 96-well plate at 500 cells/well in 200 μL of cell culture media. Plates were incubated overnight at 37° C. and 5% CO2. The following day, media was replaced with 0-100 mM 2-DG in quadruplicate. Plates were imaged once every 4 hrs on the IncuCyte Zoom (Essen Bioscience) for 5 days. Final confluency measurements were calculated using the system algorithm and the IC50 was determined by GraphPad Prism.

Experiment [1] deals with B78-D14 m.11,944^60% cells. The description is as above. Format: cell-based, mouse. Particulars: for IC50: Mus musculus. The protocol:
as §1

The subject of experiment [2] is B78-D14 m.12,436^80% cells. The description is as above. In kind it is cell-based, mouse. Particulars: for IC50: Mus musculus. The protocol:
as §1

Experiment [3] relates to B78-D14 m.12,436^60% cells. The description is as above. In kind it is cell-based, mouse. Particulars: for IC50: Mus musculus. The protocol: as §1
The subject of experiment [4] is metastatic melanoma. To be noted: of the 15 responders; cited from earlier work.
Experiment [5] relates to metastatic melanoma. The experiment can be described thus: Response of metastatic melanoma patient cohort (Riaz et al.) to nivolumab, stratified by tumour mtDNA mutation status. In kind it is in vivo, human. From the text: Mutation calls and calculated heteroplasmy were used to assign patients to mtDNA wildtype, <50% VAF or >50% VAF groups.
The next experiment has as its system Hcmel12 tumours. The experiment can be described thus: Manipulation of tumour-associated neutrophils with G-CSF or anti-Ly6G, with or without anti-PD1, in Hcmel12 tumours. Format: in vivo, mouse. The protocol:
To determine if neutrophil depletions were necessary for observed sensitivity to ICB, the inventors chose to manipulate the proportion of tumour-associated neutrophils using G-CSF and anti-Ly6G treatments. Hcmel12 wild-type, m.12,436^83% and cytoLbNOX cells were allografted into C57BL/6 mice and were put on G-CSF or anti-Ly6G treatment with or without antiPD1 (FIG. 43A).
For immunotherapy experiments, mice were put on a dosing regimen of 200 μg of anti-PD1 given intraperitoneally twice a week. The first dose was given 7 days post-injection and all mice were sacrificed at 21 or 13 days post-injection for B78 or HcMel12 cells respectively. Either 5 μg mouse recombinant G-CSF (Stemcell) or 100 μg anti-mouse Ly6G—clone 1A8 (2B Scientific) was given intraperitoneally every 2 days post-engraftment to mice for neutrophil depletion experiments.

Where [6] appears, read: wild-type cells, read-out: IC50.
Where [7] appears, read: m.12,436^80% cells, read-out: IC50.
Setting [8] is: m.12,436^60% cells, read-out: IC50.
[9] abbreviates: printed as mt.11944^80%, read-out: IC50.

Where two headings read alike, the source gives them in different places.

Regarding `O=CC[C@@H](O)[C@H](O)[C@H](O)CO` [2-DG, 2-deoxyglucose], the IC50 (as a rule, the midpoint of a concentration-inhibition curve) with B78-D14 wild-type cells (setting [6]) came to 1620 µM; in experiment [1] (m.11,944^60% cells, read-out: IC50) it was 1040 µM; in experiment [2] (setting [7]), 460 µM; in experiment [3] (setting [8]) it was 810 µM. Also, the “sensitivity compared with wild-type cells” value in experiment [1] (m.11,944^60% cells) is “more sensitive”; in experiment [2] (m.12,436^80% cells), “further enhanced”; in experiment [3] (m.12,436^60% cells), “more sensitive”.
`CN(C)C(=N)N=C(N)N` [metformin]: the IC50 with B78-D14 wild-type cells (setting [6]) stood at 26300 ± 1490 µM; in experiment [1] (setting [9]), 22900 ± 700 µM; in experiment [2] (setting [7]), 5890 ± 710 µM; in experiment [3] (setting [8]), 16600 ± 2430 µM. In addition, the “sensitivity compared with wild-type cells” value in experiment [1] (m.11,944^60% cells), in experiment [2] (m.12,436^80% cells) and in experiment [3] (m.12,436^60% cells) was “enhanced sensitivity” throughout.
As for `CC[C@H]1/C=C/C=C/C[C@@H](C)[C@H](O)[C@@](C)(O)C(=O)[C@@H](C)[C@H](O)[C@@H](C)C(=O)[C@@H](C)[C@H](O)[C@@H](C)/C=C/C(=O)O[C@@H]2[C@H](C)[C@H](CC1)O[C@]1(CC[C@H](C)[C@H](C[C@@H](C)O)O1)[C@H]2C` [oligomycin], the IC50 was 13.8 ± 3.8 µM with B78-D14 wild-type cells (setting [6]); 13.5 ± 3.32 µM in experiment [1] (setting [9]); 7.75 ± 0.56 µM in experiment [2] (mt.12436^80% cells, read-out: IC50); 13.5 ± 3.32 µM in experiment [3] (mt.12436^60% cells, read-out: IC50). Further, the “sensitivity compared with wild-type cells” value in experiment [1] (m.11,944^60% cells), in experiment [2] (m.12,436^80% cells) and in experiment [3] (m.12,436^60% cells) was “None of the mutants demonstrated differential sensitivity” each time.
Take `C=C(C)[C@H]1Cc2c(ccc3c2O[C@@H]2COc4cc(OC)c(OC)cc4[C@@H]2C3=O)O1` [rotenone]: the IC50 with B78-D14 wild-type cells was 0.236 ± 0.026 µM; in experiment [1], 0.205 ± 0.033 µM; in experiment [2] it was 0.493 ± 0.108 µM; in experiment [3] it was 0.235 ± 0.035 µM. Besides, the figures for the “sensitivity compared with wild-type cells” value in experiment [1] (m.11,944^60% cells), in experiment [2] (m.12,436^80% cells) and in experiment [3] (m.12,436^60% cells) were “not differentially sensitive”, “resistance compared to wild type” and “not differentially sensitive”, respectively.
For the molecule nivolumab, in the experiment with metastatic melanoma [4], the complete responses is on record as 3 and the partial responses is reported as 12. For the same molecule, the tumours responding with metastatic melanoma [5] (<50% VAF tumours) is listed as 17%. The same molecule had a tumours responding with metastatic melanoma [5] (>50% VAF tumours) of 40%. Moreover, the “likelihood to respond, >50% VAF tumours versus mtDNA wild-type or low VAF tumours” value with metastatic melanoma [5] (Example 1 analysis) is given as 2.5 ×. For the same molecule, in the experiment with metastatic melanoma [5] (Example 2 analysis), the “rate of response of >50% VAF cancers versus wild-type or <50% VAF cancer” value was 2.6 fold. Moreover, the “cohort response rate, partial or complete responses” value in the experiment on metastatic melanoma [5] (mtDNA mutation status-naive cohort, 70 patients) was 22%. For the same molecule, the “complete responders categorised as >50% VAF” value in the experiment on metastatic melanoma [5] (out of the 3 complete responders) stood at 2.

B1: G-CSF: mouse recombinant G-CSF (Stemcell) (protein, UniProt P09920 31-208, looked up)
Granulocyte …: VPLVTVSALPPSLPLPRSFLLKSLEQVRKIQASGSVLLEQLCATYKLCHPEELVLLGHSLGIPKASLSGCSSQALQQTQCLSQLHSGLCLYQGLLQALSGISPALAPTLDLLQLDVANFATTIWQQMENLGVAPTVQPTQSAMPAFTSAFQRRAGGVLAISYLQGFLETARLALHHLA
On to B1, for which, in the experiment on Hcmel12 tumours (across genotypes), the tumour-associated neutrophil proportions entry is “increases”. Besides, the “sensitivity of tumours to anti-PD1” value in the experiment with Hcmel12 tumours (m.12,436^83% and cytoLbNOX tumours, G-CSF plus anti-PD1) is given as “abolished sensitivity”. For the same molecule, the “tumour weight versus untreated tumours at the same end-point” value in the experiment with Hcmel12 tumours (without anti-PD1) is recorded as “did not affect tumour weight”.
